Key:
BALB/c mice = assay: IgE-induced passive systemic anaphylaxis (PSA); type: in vivo
Method: Finally, to extend these observations to mast cell functions in vivo, the inventors tested the effects of C-13 on passive systemic (PSA) and cutaneous anaphylaxis (PCA) induced in BALB/c mice by administering DNP-specific IgE molecules followed by intravenous stimulation with DNP-KLH hapten. […] The intensity of systemic anaphylaxis was determined by measuring both the drop in body temperature and the increase in vascular permeability following antigen administration.
• 1) Chemical products and antibodies. A chemical bank of 3000 molecules (a varied subset) was acquired from ChemBridge, Inc. (San Diego, Calif.). Stocks of solutions of small molecules were prepared at a rate of 10 mM in DMSO (dimethylsulphoxide), except for C-13 (methyl 2-{5-[(3-benzyl-4-oxo-2-thioxo-1,3-thiazolidin-5-ylidene)methyl]-2-furyl}benzoate, ChemBridge ID No. 6197026) prepared in DMF (dimethylformamide). Unless specified otherwise, all the reagents were supplied by Sigma. […] The binding of G4G11 with Syk was assessed by adding the 9E10 monoclonal antibody conjugated with HRP detecting the amino acid sequence EQKLISEEDLN of human c-myc protein located at the C-terminal end of the scFv fragment. To generate Syk mutants, targeted mutagenesis was used on GST:Syk 6-242 protein and the binding of G4G11 with the mutants was assessed in the presence of 5 μM of C-13. • 3) Cells, culture conditions and functional tests. […]

RBL-2H3 cells = assay: FACS analysis of IgE-dependent calcium flow; type: cell-based, rat; conditions: mast cells
Method: FIG. 3. C-13 inhibits FcεRI-dependent calcium release and degranulation. A. FACS analysis of IgE-dependent calcium flow in RBL-2H3 cells. B. Release of β-hexosaminidase in RBL-2H3 cells sensitised with IgE/DNP. C. Release of β-hexosamlnidase and, D. titration of TNF-α in BMMCs cells sensitised with IgE/DNP; C-13: 3 μM. E. FACS analysis of FCεRI surface expression in RBL-2H3 cells. (0=0.25% DMF). Significant inhibition with C-13 versus DMF: **P<0.01 and *P<0.05.
Binding of Btk and Vav with SLP-76 is critical for regulating PLC-γ activity on the membrane, calcium mobilisation and granule exocytosis^27, 28.
• 1) Chemical products and antibodies. A chemical bank of 3000 molecules (a varied subset) was acquired from ChemBridge, Inc. (San Diego, Calif.). […] The binding of G4G11 with Syk was assessed by adding the 9E10 monoclonal antibody conjugated with HRP detecting the amino acid sequence EQKLISEEDLN of human c-myc protein located at the C-terminal end of the scFv fragment. To generate Syk mutants, targeted mutagenesis was used on GST:Syk 6-242 protein and the binding of G4G11 with the mutants was assessed in the presence of 5 μM of C-13. • 3) Cells, culture conditions and functional tests. […]

COC(=O)c1ccccc1-c1ccc(/C=C2/SC(=S)N(Cc3ccccc3)C2=O)o1 [Molecule C-13, methyl 2-{5-[(3-benzyl-4-oxo-2-thioxo-1,3-thiazolidin-5-ylidene)methyl]-2-furyl}benzoate]
colour of ears and tail (Evans blue extravasation) in PSA (BALB/c mice; oral administration of 130 mg/kg): light blue colour | hypothermia (drop in body temperature) in PSA (BALB/c mice; single oral dose of 100 mg/kg): inhibited hypothermia | calcium flow in response to FcεRI binding (RBL-2H3 cells): reduced calcium flow range
